Data on ten compounds can be found in ChEMBL document CHEMBL1143657, “Saucerneol B derivatives as human acyl-CoA: cholesterol acyltransferase inhibitors” (Bioorg Med Chem Lett, 2005).

The first experiment addresses T1, Sterol O-acyltransferase 2 (Homo sapiens) (UniProt O75908).
T1 sequence (whole entry): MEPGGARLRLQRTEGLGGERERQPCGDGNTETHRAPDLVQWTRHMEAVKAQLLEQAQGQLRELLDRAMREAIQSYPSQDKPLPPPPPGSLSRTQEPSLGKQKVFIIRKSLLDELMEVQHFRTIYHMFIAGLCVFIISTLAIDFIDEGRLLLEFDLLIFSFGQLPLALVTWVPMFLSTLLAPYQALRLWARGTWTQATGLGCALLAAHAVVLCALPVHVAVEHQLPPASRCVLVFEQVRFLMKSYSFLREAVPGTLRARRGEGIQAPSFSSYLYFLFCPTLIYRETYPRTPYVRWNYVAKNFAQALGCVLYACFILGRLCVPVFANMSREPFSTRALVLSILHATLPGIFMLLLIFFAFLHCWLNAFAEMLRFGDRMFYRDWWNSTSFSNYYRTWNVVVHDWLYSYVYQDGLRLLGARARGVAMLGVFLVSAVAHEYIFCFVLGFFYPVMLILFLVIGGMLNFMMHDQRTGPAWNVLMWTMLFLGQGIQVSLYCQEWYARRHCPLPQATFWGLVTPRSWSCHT
Description: In vitro inhibition of human Acyl coenzyme A:cholesterol acyltransferase 2 expressed in Hi5 cells at 125 uM. Particulars: BTI-TN-5B1-4.
In turn, `CCCCCCCCCOC(c1ccc2c(c1)OCO2)C(OC)Oc1ccc([C@H]2O[C@@H](c3ccc(OC)c(OC)c3)[C@@H](C)[C@H]2C)cc1OC` (some centres not stated) displayed an inhibition of 10%. Consider `CCCCCOC(c1ccc2c(c1)OCO2)C(OC)Oc1ccc([C@H]2O[C@@H](c3ccc(OC)c(OC)c3)[C@@H](C)[C@H]2C)cc1OC` (some centres not stated), for which the inhibition stood at 33%. On the same count and under the same terms, next, `CCCCCCCCOC(c1ccc2c(c1)OCO2)C(OC)Oc1ccc([C@H]2O[C@@H](c3ccc(OC)c(OC)c3)[C@@H](C)[C@H]2C)cc1OC` (some centres not stated): 19%; `CCCCCCOC(c1ccc2c(c1)OCO2)C(OC)Oc1ccc([C@H]2O[C@@H](c3ccc(OC)c(OC)c3)[C@@H](C)[C@H]2C)cc1OC` (some centres not stated): 33%; `CCCOC(c1ccc2c(c1)OCO2)C(OC)Oc1ccc([C@H]2O[C@@H](c3ccc(OC)c(OC)c3)[C@@H](C)[C@H]2C)cc1OC` (some centres not stated): 33%. The same measure, in the same setting: the figure for `CCCCOC(c1ccc2c(c1)OCO2)C(OC)Oc1ccc([C@H]2O[C@@H](c3ccc(OC)c(OC)c3)[C@@H](C)[C@H]2C)cc1OC` (some centres not stated) is 28%; for `COc1ccc([C@@H]2O[C@H](c3ccc(OC(OC)C(OC)c4ccc5c(c4)OCO5)c(OC)c3)[C@H](C)[C@@H]2C)cc1OC` (some centres not stated) it is 45%; for `CCCCCCCOC(c1ccc2c(c1)OCO2)C(OC)Oc1ccc([C@H]2O[C@@H](c3ccc(OC)c(OC)c3)[C@@H](C)[C@H]2C)cc1OC` (some centres not stated) it is 26%. Same read-out and setting: next, `CCOC(c1ccc2c(c1)OCO2)C(OC)Oc1ccc([C@H]2O[C@@H](c3ccc(OC)c(OC)c3)[C@@H](C)[C@H]2C)cc1OC` (some centres not stated): 29%.

A further experiment deals with T2, Sterol O-acyltransferase 1 (Homo sapiens) (UniProt P35610).
T2 sequence (whole entry): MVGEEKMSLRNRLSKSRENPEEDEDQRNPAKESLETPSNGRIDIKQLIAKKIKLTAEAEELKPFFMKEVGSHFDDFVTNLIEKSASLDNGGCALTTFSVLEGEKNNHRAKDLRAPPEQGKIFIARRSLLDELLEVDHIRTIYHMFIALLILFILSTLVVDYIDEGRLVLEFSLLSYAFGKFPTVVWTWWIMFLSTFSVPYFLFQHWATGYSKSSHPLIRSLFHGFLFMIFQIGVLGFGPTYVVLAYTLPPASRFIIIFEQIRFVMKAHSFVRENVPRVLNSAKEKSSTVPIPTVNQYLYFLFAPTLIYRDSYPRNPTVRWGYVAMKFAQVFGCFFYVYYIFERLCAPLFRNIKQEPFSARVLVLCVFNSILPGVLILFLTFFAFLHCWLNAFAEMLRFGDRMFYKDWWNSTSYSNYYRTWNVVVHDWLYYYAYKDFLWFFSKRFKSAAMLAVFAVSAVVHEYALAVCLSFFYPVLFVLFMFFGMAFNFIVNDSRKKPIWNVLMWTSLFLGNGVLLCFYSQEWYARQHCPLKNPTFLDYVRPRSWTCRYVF
Description: In vitro inhibition of human Acyl coenzyme A:cholesterol acyltransferase 1 expressed in Hi5 cells. The note with it: BTI-TN-5B1-4, concentration not given here.
Regarding `CCCCCCCCCOC(c1ccc2c(c1)OCO2)C(OC)Oc1ccc([C@H]2O[C@@H](c3ccc(OC)c(OC)c3)[C@@H](C)[C@H]2C)cc1OC` (some centres not stated), the inhibition came out at 25%. The same measure, in the same setting: the figure for `CCCCCCCCOC(c1ccc2c(c1)OCO2)C(OC)Oc1ccc([C@H]2O[C@@H](c3ccc(OC)c(OC)c3)[C@@H](C)[C@H]2C)cc1OC` (some centres not stated) is 44%.

Another experiment addresses T3, Sterol O-acyltransferase 2 (Homo sapiens, UniProt O75908).
T3 sequence (O75908 whole entry): T1 sequence (whole entry)
Description: In vitro inhibitory concentration against human Acyl coenzyme A:cholesterol acyltransferase 2 expressed in Hi5 cells. Also noted: species or system BTI-TN-5B1-4.
Conditions: not given
Turning to `COc1ccc(C(O)C(C)Oc2ccc([C@H]3O[C@H](c4ccc(OC(C)C(O)c5ccc(OC)c(OC)c5)c(OC)c4)[C@H](C)[C@H]3C)cc2OC)cc1OC` (some centres not stated), the half-maximal inhibitory concentration (IC50) came out at 8 µM.
